Data on 22 compounds can be found in patent publication US9266835B2, “Quinoline derivatives useful as CB-1 inverse agonists” (JANSSEN PHARMACEUTICA NV, priority 2014, dated 2016).

Assay [1] addresses Human CB2R (Cannabinoid receptor 2) (Homo sapiens (Human), UniProt P34972). Description: CB-2 in vitro cAMP assay (HTRF), inverse agonism. The assay is classed as cell-based. The note with it: mean where tested more than once. The source says: (§1) CB1 and CB2 receptors are Gi-coupled GPCR. Activation of CB1 and CB2 receptors results in a decrease in cAMP production. An inverse agonist of the CB1 or CB2 receptor results in the opposite effect, an increase of cAMP production. The principle of this assay is based on HTRF® technology (Homogeneous Time-Resolved Fluorescence). The method is a competitive immunoassay between native cAMP produced by cells and the cAMP labeled with the fluorophore d2. The tracer binding is quantified by a Mab anti-cAMP labeled with Eu3+TBP-NHS Cryptate (supplied as part of the assay kit). The specific signal (i.e. energy transfer) is inversely proportional to the concentration of cAMP in the standard or sample.
(§2) Human CB1R (Cannabinoid receptor 1) was stably transfected in HEK-293 cells (DiscoveRx, cat: 93-0200C1). Human CB2R (Cannabinoid receptor 2) was stably transfected in HEK-293 cells (DiscoveRx, cat: 93-0201C1). Cell cultures were maintained in media: DMEM (Invitrogen Cat#12430-054) supplemented with 10% HI FBS (Invitrogen Cat#16140-071), 1% L-glutamine (Invitrogen Cat#25030-081), 0.2 mg/ml Hygromycin B (Invitrogen Cat#10687-010), 600 μg/mL G418 (Invitrogen Cat#10131-035), and 1X Penn/Strep (Invitrogen 15140-122). After cell expansion, aliquots were cryo-stored in media containing 5% DMSO (Pierce Cat#20684).
(§3) One day prior to experiments media was warmed to 37° C. and the cryo-stored cells were thawed in a 37° C. water bath. The cells were then added to media (10× volume) and the mixture was centrifuged at 1000 RPM for 5 min. The supernate was removed and the cells were re-suspended in media. A sample of the cell suspension was evaluated on a Cedex XS automated cell counter (Innovatis Systems) to determine viable cells/ml. Additional media was added to the cells to achieve a final cell density of 4E5 cells/mL. The cells were then plated into 384 well PDL white solid bottom plates (Greiner, Cat#781945) at 20 μL per well using a Multidrop (Thermo Scientific). Cells were removed from Row P (location of cAMP standards). Two columns of cells were plated into a clear bottom 384 well PDL coated plate (Greiner, Cat#781944) to view confluence the day of the assay. The cell plates were lidded and stored for 15 minutes in a hood, then transferred to an incubator (37° C., 5% CO2, 95% humidity) overnight.
(§4) DMSO was added to all wells of 384 well V bottom polystyrene plate (Greiner, Cat#781280) except to columns 1 and 13, rows 0 and P and wells M13-M23 and N13-N23. Test compounds (60 μL, 10 mM) were added to Column 1 and 13 (A1 through N1 and A13 through L13). Test compounds were serially diluted 1/3 by transferring and mixing 20 μl sample with 40 μL DMSO.
(§5) DMSO (40 μL) was added to wells of 384 well V bottom polystyrene plate: O2 through O11, M14 through M23, N14 through N23, and O14 through O23. AM630 (also known as [6-iodo-2-methyl-1-[2-(4-morpholinyl)ethyl]-1H-indol-3-yl](4-methoxyphenyl)-methanone, Cayman Chemical, Cat#10006974) (60 μL, 10 mM) was added to 01; and 1-(2,4-dichlorophenyl)-7-[(4-fluorophenyl)methylene]-4,5,6,7-tetrahydro-N-1-piperidinyl-1H-indazole-3-carboxamide (60 μL, 10 mM) was added to N13. The control was serially diluted 1/3 by transferring and mixing 20 μl sample with 40 μL DMSO. This process resulted 11 doses per control, 10 mM to […].
(§6) Cells plated the day prior to the assay in clear bottom plates were viewed on an inverse microscope to ensure confluency in the range of 60-75%. […]

For assay [2], the target named is Human CB1R (Cannabinoid receptor 1) (Homo sapiens (Human), UniProt P21554). Description: CB-1 in vitro cAMP assay (HTRF), inverse agonism. Type of assay: cell-based. The note with it: mean where tested more than once.
Human CB1R (Cannabinoid receptor 1), sequence (P21554 whole entry): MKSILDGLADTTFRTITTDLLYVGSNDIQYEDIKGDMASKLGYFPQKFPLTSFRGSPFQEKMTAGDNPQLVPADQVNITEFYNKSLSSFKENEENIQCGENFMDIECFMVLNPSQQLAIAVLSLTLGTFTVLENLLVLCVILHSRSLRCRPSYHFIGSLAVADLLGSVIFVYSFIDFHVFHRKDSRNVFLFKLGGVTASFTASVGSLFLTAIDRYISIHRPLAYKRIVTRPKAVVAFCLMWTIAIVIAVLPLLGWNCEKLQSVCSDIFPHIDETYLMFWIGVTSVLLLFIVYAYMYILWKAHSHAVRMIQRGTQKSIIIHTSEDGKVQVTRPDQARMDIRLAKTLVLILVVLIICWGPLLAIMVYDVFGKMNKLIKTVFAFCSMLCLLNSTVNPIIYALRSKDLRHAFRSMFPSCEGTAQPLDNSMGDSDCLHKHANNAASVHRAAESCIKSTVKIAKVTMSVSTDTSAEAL
Text: as §1, §2, §3, §4, §5, §6

Human CB2R (Cannabinoid receptor 2), sequence (P34972 whole entry): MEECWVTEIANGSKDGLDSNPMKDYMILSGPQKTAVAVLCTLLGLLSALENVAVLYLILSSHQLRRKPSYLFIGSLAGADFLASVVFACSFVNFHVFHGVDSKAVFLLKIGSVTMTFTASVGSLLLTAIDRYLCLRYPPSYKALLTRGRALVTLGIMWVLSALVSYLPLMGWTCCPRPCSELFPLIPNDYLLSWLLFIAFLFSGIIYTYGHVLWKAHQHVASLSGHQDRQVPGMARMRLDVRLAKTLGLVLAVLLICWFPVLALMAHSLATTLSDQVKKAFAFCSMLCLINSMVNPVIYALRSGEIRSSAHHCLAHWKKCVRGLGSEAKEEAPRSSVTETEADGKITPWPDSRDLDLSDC

Consider `OC(c1ccc(Cl)cc1)(c1ccc2nccc(/C=C\c3ccccc3)c2c1)c1cscn1` (mixture of isomers) [Compound 516, (Z)-(4-chlorophenyl)(4-styrylquinolin-6-yl)(thiazol-4-yl)methanol], for which the EC50 in assay [1] was 200 nM; in assay [2], 3270 nM.
The corresponding values for `O=c1cc(CCc2cccc(Cl)c2)c2cc(C(O)(c3ccc(Cl)cc3)c3nccs3)ccc2[nH]1` (stereo not drawn) [Compound 8, 4-(3-chlorophenethyl)-6-((4-chlorophenyl)(hydroxy)(thiazol-2-yl)methyl)quinolin-2(1H)-one] are greater than 10000 nM and 876 nM.
The matching figures for `Cn1c(=O)cc(CCc2cccc(Cl)c2)c2cc(C(c3ccc(Cl)cc3)c3nccs3)ccc21` (stereo not drawn) [Compound 9, 4-(3-chlorophenethyl)-6-((4-chlorophenyl)(thiazol-2-yl)methyl)-1-methylquinolin-2(1H)-one]: greater than 10000 nM and 169 nM.
The corresponding values for `O=c1cc(CCc2cccc(Cl)c2)c2cc(C(c3ccc(Cl)cc3)c3nccs3)ccc2[nH]1` (stereo not drawn) [Compound 11, 4-(3-chlorophenethyl)-6-((4-chlorophenyl)(thiazol-2-yl)methyl)quinolin-2(1H)-one] are greater than 10000 nM and 121 nM.
`CC(C)(C)OC(=O)N1CC=C(c2cc(=O)[nH]c3ccc(C(c4ccc(Cl)cc4)c4ccc(Cl)cc4)cc23)CC1` [Compound 13, tert-Butyl 4-{6-[bis(4-chlorophenyl)methyl]-2-oxo-1,2-dihydroquinolin-4-yl}-3,6-dihydropyridine-1(2H)-carboxylate]: the EC50 in assay [1] was greater than 10000 nM; in assay [2], 403 nM.
The corresponding values for `O=C(N1CC=C(c2cc(=O)[nH]c3ccc(C(c4ccc(Cl)cc4)c4ccc(Cl)cc4)cc23)CC1)C(F)(F)F` [Compound 14, 6-(bis(4-chlorophenyl)methyl)-4-(1-(2,2,2-trifluoroacetyl)-1,2,3,6-tetrahydropyridin-4-yl)quinolin-2(1H)-one] are greater than 10000 nM and 254 nM.
The corresponding values for `O=c1cc(/C=C/c2cccc(F)c2)c2cc(C(c3ccc(Cl)cc3)c3ccc(Cl)cc3)ccc2[nH]1` [Compound 15, 6-[Bis(4-chlorophenyl)methyl]-4-[(E)-2-(3-fluorophenyl)ethenyl]quinolin-2(1H)-one] are 660 nM and 702 nM.
In the case of `O=c1cc(/C=C/c2cccc(F)c2)c2cc(C(c3ccc(Cl)cc3)c3ccsc3)ccc2[nH]1` (stereo not drawn) [Compound 16, 6-[(4-Chlorophenyl)(thiophen-3-yl)methyl]-4-[(E)-2-(3-fluorophenyl)ethenyl]quinolin-2(1H)-one], the figures for the EC50 in assay [1] and in assay [2] were 90 nM and 83 nM, respectively.
The matching figures for `O=c1cc(C2=CCN(S(=O)(=O)C(F)(F)F)CC2)c2cc(C(c3ccc(Cl)cc3)c3ccc(Cl)cc3)ccc2[nH]1` [Compound 17, 6-(bis(4-chlorophenyl)methyl)-4-(1-((trifluoromethyl)sulfonyl)-1,2,3,6-tetrahydropyridin-4-yl)quinolin-2(1H)-one]: 80 nM and 827 nM.
The corresponding values for `O=c1cc(/C=C\c2ccc(C(F)(F)F)cc2)c2cc(C(c3ccc(Cl)cc3)c3cccs3)ccc2[nH]1` (stereo not drawn) [Compound 18, 6-[(4-Chlorophenyl)(thiophen-2-yl)methyl]-4-{(Z)-2-[4-(trifluoromethyl)phenyl]-ethenyl}quinolin-2(1H)-one] are greater than 10000 nM and 875 nM.
The corresponding values for `O=c1cc(/C=C/c2ccc(C(F)(F)F)cc2)c2cc(C(c3ccc(Cl)cc3)c3cccs3)ccc2[nH]1` (stereo not drawn) [Compound 19, 6-[(4-Chlorophenyl)(thiophen-2-yl)methyl]-4-{(E)-2-[4-(trifluoromethyl)phenyl]-ethenyl}quinolin-2(1H)-one] are greater than 10000 nM and 59 nM.
Regarding `O=c1cc(/C=C/c2ccccc2)c2cc(C(c3ccc(Cl)cc3)c3cccs3)ccc2[nH]1` (stereo not drawn) [Compound 21, 6-[(4-Chlorophenyl)(thiophen-2-yl)methyl]-4-[(E)-2-phenylethenyl]quinolin-2(1H)-one], the EC50 in assay [1] was greater than 10000 nM; in assay [2] it was 4140 nM.
The corresponding values for `O=c1cc(/C=C/c2ccccc2)c2cc(C(c3ccc(Cl)cc3)c3nccs3)ccc2[nH]1` (stereo not drawn) [Compound 25, (E)-6-((4-chlorophenyl)(thiazol-2-yl)methyl)-4-styrylquinolin-2(1H)-one] are greater than 10000 nM and 816 nM.
The corresponding values for `O=c1cc(/C=C/c2cccc(C(F)(F)F)c2)c2cc(C(c3ccc(Cl)cc3)c3cccs3)ccc2[nH]1` (stereo not drawn) [Compound 26, 6-[(4-Chlorophenyl)(thiophen-2-yl)methyl]-4-{(E)-2-[3-(trifluoromethyl)phenyl]-ethenyl}quinolin-2(1H)-one] are greater than 10000 nM and 333 nM.
The matching figures for `Cc1ccc(/C=C/c2cc(=O)[nH]c3ccc(C(c4ccc(Cl)cc4)c4cccs4)cc23)cc1` (stereo not drawn) [Compound 27, 6-[(4-Chlorophenyl)(thiophen-2-yl)methyl]-4-[(E)-2-(4-methylphenyl)ethenyl]-quinolin-2(1H)-one]: greater than 10000 nM and 443 nM.
On to `O=c1cc(/C=C/c2ccc(C(F)(F)F)cc2)c2cc(C(c3ccc(Cl)cc3)c3ccc(Cl)s3)ccc2[nH]1` (stereo not drawn) [Compound 29, 6-[(4-Chlorophenyl)(5-chlorothiophen-2-yl)methyl]-4-{(E)-2-[4-(trifluoromethyl)phenyl]-ethenyl}quinolin-2(1H)-one], for which the EC50 in assay [1] is greater than 10000 nM; in assay [2], 759 nM.
With `O=c1cc(/C=C/c2cccc(F)c2)c2cc(C(c3ccc(Cl)cc3)c3ccc(Cl)s3)ccc2[nH]1` (stereo not drawn) [Compound 30, 6-[(4-Chlorophenyl)(5-chlorothiophen-2-yl)methyl]-4-[(E)-2-(3-fluorophenyl)ethenyl]quinolin-2(1H)-one], the EC50 in assay [1] was greater than 10000 nM; in assay [2], 1380 nM.
`O=c1cc(/C=C/c2ccccc2)c2cc(C(c3ccc(Cl)cc3)c3ccc(Cl)s3)ccc2[nH]1` (stereo not drawn) [Compound 31, 6-[(4-Chlorophenyl)(5-chlorothiophen-2-yl)methyl]-4-[(E)-2-phenylethenyl]quinolin-2(1H)-one]: the EC50 was greater than 10000 nM in assay [1] and 2280 nM in assay [2].
The matching figures for `O=c1cc(/C=C/c2cccc(F)c2)c2cc(C(c3ccccc3)c3ccc(Cl)cc3)ccc2[nH]1` (stereo not drawn) [Compound 32, 6-[(4-Chlorophenyl)(phenyl)methyl]-4-[(E)-2-(3-fluorophenyl)ethenyl]quinolin-2(1H)-one]: greater than 10000 nM and 3200 nM.
`O=c1cc(/C=C/c2ccc(C(F)(F)F)cc2)c2cc(C(c3ccccc3)c3ccc(Cl)cc3)ccc2[nH]1` (stereo not drawn) [Compound 33, 6-[(4-Chlorophenyl)(phenyl)methyl]-4-{(E)-2-[4-(trifluoromethyl)phenyl]-ethenyl}quinolin-2(1H)-one]: the EC50 in assay [1] is greater than 10000 nM; in assay [2] it was 1210 nM.
On to `CC(C)(C)OC(=O)N1CC(CNc2cc(=O)[nH]c3ccc(C(c4ccc(Cl)cc4)c4nccs4)cc23)C1` (stereo not drawn) [Compound 42, tert-Butyl 3-[({6-[(4-chlorophenyl)(1,3-thiazol-2-yl)methyl]-2-oxo-1,2-dihydroquinolin-4-yl}amino)methyl]azetidine-1-carboxylate], for which, in assay [2], a half-maximal effect (EC50) was put at 2330 nM.
As to `O=c1cc(NCC2CNC2)c2cc(C(c3ccc(Cl)cc3)c3nccs3)ccc2[nH]1` (stereo not drawn) [Compound 43, 4-[(Azetidin-3-ylmethyl)amino]-6-[(4-chlorophenyl)(1,3-thiazol-2-yl)methyl]quinolin-2(1H)-one], the EC50 in assay [2] was greater than 10000 nM.

What is called EC50 is the concentration that produces a half-maximal response. A high value points to lower potency in that assay.
